Here are results for two compounds from patent US20230074252A1, “DOSAGES AND METHODS FOR TREATING PULMONARY ARTERIAL HYPERTENSION WITH RODATRISTAT” (Altavant Sciences GmbH, priority 2020, published 2023).

Like-named read-outs stand apart in the source and are kept apart here.

Holding throughout (assay): Transporter inhibition, transporter-expressing in vitro system
Holding throughout (type): in vitro ADME

The target of one series is T1, OAT1 (Homo sapiens, UniProt Q4U2R8).
T1 sequence (Q4U2R8 1-563): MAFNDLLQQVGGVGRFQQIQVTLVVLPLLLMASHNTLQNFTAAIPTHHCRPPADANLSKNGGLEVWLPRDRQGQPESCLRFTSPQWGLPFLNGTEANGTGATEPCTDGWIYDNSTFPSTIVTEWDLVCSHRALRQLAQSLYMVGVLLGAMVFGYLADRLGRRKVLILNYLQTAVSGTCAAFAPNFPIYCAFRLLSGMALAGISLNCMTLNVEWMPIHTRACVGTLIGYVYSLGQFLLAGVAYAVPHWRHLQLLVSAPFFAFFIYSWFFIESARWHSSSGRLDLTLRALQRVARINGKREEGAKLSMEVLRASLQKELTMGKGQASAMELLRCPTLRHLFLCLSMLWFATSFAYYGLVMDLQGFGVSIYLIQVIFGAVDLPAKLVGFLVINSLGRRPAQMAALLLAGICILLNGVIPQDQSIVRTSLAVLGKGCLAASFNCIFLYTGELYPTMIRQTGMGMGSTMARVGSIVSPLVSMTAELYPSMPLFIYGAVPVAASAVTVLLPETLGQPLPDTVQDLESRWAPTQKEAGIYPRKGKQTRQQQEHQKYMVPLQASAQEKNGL
Particulars: for Potential for interaction? (transporter inhibitor), OAT1: predicted @ 600 mg BID. The procedure: (§1) The competitive inhibition of specific transporters was investigated for RVT-1201 and KAR5417 in transporter-expressing in vitro systems (XT158039). Inhibition of P-gp was evaluated using a Caco-2 cell line with digoxin as probe substrate. Inhibition of OATP1B1 and OATP1B3 was evaluated using a HEK293 cell line expressing these transporters with estradiol-17β-glucuronide as probe substrate. In addition, inhibition of other transporters was also investigated (BCRP, OAT1, OAT3, OCT2, MATE1, MATE2-K). The IC50 estimates for P-gp (RVT-1201) and OATP1B1/3 (RVT-1201 and KAR5417) supported further evaluation of inhibition DDI potential using the PBPK model. For each IC50 estimate, substrate concentration and Km were used to estimate RVT-1201 and KAR5417 Ki with Equation 1 (Cheng and Prusoff, 1973).

The next series has as its target T2, OAT3 (Homo sapiens, UniProt Q8TCC7).
T2 sequence (Q8TCC7 1-542): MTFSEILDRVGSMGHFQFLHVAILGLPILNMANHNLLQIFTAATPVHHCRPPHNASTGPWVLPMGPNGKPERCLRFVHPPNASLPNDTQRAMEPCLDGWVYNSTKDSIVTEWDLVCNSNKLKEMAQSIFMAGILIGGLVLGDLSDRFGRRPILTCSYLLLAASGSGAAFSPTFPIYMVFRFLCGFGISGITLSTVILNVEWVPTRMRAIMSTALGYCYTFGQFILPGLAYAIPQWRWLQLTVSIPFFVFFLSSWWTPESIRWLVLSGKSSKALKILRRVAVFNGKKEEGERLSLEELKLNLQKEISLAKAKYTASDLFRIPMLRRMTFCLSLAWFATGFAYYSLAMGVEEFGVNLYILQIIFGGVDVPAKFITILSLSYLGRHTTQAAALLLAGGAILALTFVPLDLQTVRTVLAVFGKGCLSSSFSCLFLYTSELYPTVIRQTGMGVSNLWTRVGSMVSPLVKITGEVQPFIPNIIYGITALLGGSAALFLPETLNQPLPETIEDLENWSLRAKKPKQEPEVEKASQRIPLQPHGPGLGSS
Particulars: for Potential for interaction? (transporter inhibitor), OAT3: predicted @ 600 mg BID. The procedure:
as §1

The target in a further series is MATE2-K (Homo sapiens, UniProt Q86VL8). Particulars: for Potential for interaction? (transporter inhibitor), MATE2-K: predicted @ 600 mg BID. As to the method: as §1
For the next series, the target named is T3, BCRP (Homo sapiens, UniProt Q9UNQ0).
T3 sequence (Q9UNQ0 1-655): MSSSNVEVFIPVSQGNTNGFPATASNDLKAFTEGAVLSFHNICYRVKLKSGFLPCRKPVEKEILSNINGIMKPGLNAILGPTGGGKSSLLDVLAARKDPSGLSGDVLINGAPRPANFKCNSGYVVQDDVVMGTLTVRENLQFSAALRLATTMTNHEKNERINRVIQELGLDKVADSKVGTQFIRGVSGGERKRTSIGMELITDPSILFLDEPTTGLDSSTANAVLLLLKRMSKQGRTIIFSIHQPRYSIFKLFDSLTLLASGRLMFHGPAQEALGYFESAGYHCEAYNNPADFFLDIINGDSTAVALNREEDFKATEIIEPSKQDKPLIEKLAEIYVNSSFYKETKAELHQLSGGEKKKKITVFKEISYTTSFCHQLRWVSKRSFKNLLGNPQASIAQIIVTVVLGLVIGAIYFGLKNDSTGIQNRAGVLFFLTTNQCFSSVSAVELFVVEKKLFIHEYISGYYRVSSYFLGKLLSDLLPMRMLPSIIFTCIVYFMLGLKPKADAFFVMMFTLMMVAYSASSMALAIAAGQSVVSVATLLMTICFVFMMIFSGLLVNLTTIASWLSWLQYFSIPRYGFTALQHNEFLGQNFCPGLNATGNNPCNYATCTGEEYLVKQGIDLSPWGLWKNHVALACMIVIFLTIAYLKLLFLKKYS
The settings on record: for Potential for interaction? (transporter inhibitor), BCRP: predicted @ 600 mg BID. As to the method:
as §1

Another series deals with T4, OCT2 (Homo sapiens, UniProt O15244).
T4 sequence (O15244 1-555): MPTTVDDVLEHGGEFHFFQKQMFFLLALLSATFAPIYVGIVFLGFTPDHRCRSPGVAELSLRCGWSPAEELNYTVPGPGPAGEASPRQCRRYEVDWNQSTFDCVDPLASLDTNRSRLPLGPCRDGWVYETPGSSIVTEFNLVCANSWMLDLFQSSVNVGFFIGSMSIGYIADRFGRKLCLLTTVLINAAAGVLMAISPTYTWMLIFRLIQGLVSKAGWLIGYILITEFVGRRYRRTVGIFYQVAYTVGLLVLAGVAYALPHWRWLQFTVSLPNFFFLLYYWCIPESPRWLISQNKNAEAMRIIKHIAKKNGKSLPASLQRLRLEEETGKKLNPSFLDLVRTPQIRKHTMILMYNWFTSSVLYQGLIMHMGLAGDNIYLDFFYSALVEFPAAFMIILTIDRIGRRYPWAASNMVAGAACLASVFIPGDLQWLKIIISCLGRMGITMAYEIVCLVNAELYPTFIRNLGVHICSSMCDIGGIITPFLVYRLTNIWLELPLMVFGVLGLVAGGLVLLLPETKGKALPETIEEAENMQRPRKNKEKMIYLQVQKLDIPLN
The settings on record: for IC50: concentrations of up to 20 μM; for Potential for interaction? (transporter inhibitor), OCT2: predicted @ 600 mg BID. As to the method:
as §1

MATE2-K, sequence (Q86VL8 1-566 isoform Q86VL8-3): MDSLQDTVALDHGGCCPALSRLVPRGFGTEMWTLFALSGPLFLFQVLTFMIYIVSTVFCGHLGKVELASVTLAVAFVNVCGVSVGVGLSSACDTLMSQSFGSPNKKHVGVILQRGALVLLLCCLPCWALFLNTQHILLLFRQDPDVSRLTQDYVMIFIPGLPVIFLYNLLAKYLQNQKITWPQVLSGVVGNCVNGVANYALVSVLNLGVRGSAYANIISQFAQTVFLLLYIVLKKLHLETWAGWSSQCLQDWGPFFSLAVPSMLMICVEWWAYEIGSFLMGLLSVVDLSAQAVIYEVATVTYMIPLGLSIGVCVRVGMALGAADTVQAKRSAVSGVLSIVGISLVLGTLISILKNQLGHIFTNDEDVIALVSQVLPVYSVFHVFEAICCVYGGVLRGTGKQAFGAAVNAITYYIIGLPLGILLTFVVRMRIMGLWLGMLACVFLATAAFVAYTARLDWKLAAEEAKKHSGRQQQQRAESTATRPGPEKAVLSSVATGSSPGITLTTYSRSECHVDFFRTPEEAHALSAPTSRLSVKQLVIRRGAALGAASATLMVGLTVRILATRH

On to `CCOC(=O)[C@@H]1CC2(CCN(c3cc(O[C@H](c4ccc(Cl)cc4-c4ccccc4)C(F)(F)F)nc(N)n3)CC2)CN1` [Rodatristat ethyl, (S)-ethyl 8-(2-amino-6-((R)-1-(5-chloro-[1,1′-biphenyl]-2-yl)-2,2,2-trifluoroethoxy)pyrimidin-4-yl)-2,8-diazaspiro[4.5]decane-3-carboxylate], for which, at OAT1, the “Inhibition of OAT1 (in words)” value is “Neither rodatristat ethyl nor rodatristat inhibited” and the “Potential for interaction? (transporter inhibitor), OAT1” value was “No”. On OAT3, the “Inhibition of OAT3 (in words)” value was “Neither rodatristat ethyl nor rodatristat inhibited” and the “Potential for interaction? (transporter inhibitor), OAT3” value was “No”. Also, the “Potential for interaction? (transporter inhibitor), MATE2-K” value at MATE2-K is recorded as “No”. Besides, on BCRP, the “Inhibition of BCRP (in words)” value is given as “not an inhibitor” and the “Potential for interaction? (transporter inhibitor), BCRP” value is recorded as “No”. In addition, the “Inhibition of BCRP (in words)” value on BCRP (listed as rodatristat ethyl) is listed as “Neither rodatristat ethyl nor rodatristat inhibited”. At OCT2, the IC50 was over 20 µM and the “Potential for interaction? (transporter inhibitor), OCT2” value is “No”.

Take `Nc1nc(O[C@H](c2ccc(Cl)cc2-c2ccccc2)C(F)(F)F)cc(N2CCC3(CC2)CN[C@H](C(=O)O)C3)n1` [Rodatristat, (S)-8-(2-amino-6-((R)-1-(5-chloro-[1,1′-biphenyl]-2-yl)-2,2,2-trifluoroeth-oxy)pyrimidin-4-yl)-2,8-diazaspiro[4.5]decane-3-carboxylic acid]: on OAT1, the “Inhibition of OAT1 (in words)” value is reported as “Neither rodatristat ethyl nor rodatristat inhibited” and the “Potential for interaction? (transporter inhibitor), OAT1” value is listed as “No”. For the same compound, at OAT3, the “Inhibition of OAT3 (in words)” value is reported as “Neither rodatristat ethyl nor rodatristat inhibited” and the “Potential for interaction? (transporter inhibitor), OAT3” value is given as “No”. For the same compound, on MATE2-K, the “Potential for interaction? (transporter inhibitor), MATE2-K” value is given as “No”. Further, the “Inhibition of MATE2-K (in words)” value on MATE2-K (up to 30 μM nominal concentration) was “did not inhibit”. At BCRP, the “Inhibition of BCRP (in words)” value is recorded as “not an inhibitor” and the “Potential for interaction? (transporter inhibitor), BCRP” value is recorded as “No”. The “Inhibition of BCRP (in words)” value at BCRP (listed as rodatristat) was “Neither rodatristat ethyl nor rodatristat inhibited”. Further, at OCT2, the IC50 was over 20 µM and the “Potential for interaction? (transporter inhibitor), OCT2” value is recorded as “No”.
